Experimental data: ChEMBL document CHEMBL4261528, “Synthesis, molecular modeling and biological evaluation of aza-flavanones as α-glucosidase inhibitors” (Medchemcomm, 2017)

test: Inhibition of baker's yeast alpha-glucosidase preincubated for 15 to 20 mins followed by p-nitrophenyl-alpha-D-glucopyranoside substrate addition measured after 45 to 60 mins by spectrophotometric method; design: species or system Saccharomyces cerevisiae; conditions: not given

IC50	SMILES
Nd(Insoluble)	O=C1CC(c2ccc(Br)cc2)Nc2ccccc21 (configuration not stated)

same assay, conditions: read-out: IC50

SMILES	IC50 [µM]
COc1ccc(C2CC(=O)c3ccccc3N2)cc1 (configuration not stated)	303
O=C1CC(c2ccccc2)Nc2ccccc21 (configuration not stated) [Aza-flavanone]	686
O=C1CC(c2cccs2)Nc2ccccc21 (configuration not stated)	382
O=C1CC(c2ccncc2)Nc2ccccc21 (configuration not stated)	773
O=C1CC(c2ccc(C(F)(F)F)cc2)Nc2ccccc21 (configuration not stated)	53.5
O=C1CC(c2ccco2)Nc2ccccc21 (configuration not stated)	487
O=C1CC(c2ccsc2)Nc2ccccc21 (configuration not stated)	72.4
Cc1ccc(C2CC(=O)c3ccccc3N2)cc1C (configuration not stated)	606
O=C1CC(c2ccoc2)Nc2ccccc21 (configuration not stated)	352

More lines, now with the values ahead:

IC50 [µM]	SMILES
360	C[C@H]1O[C@H](O[C@H]2[C@H](O)[C@@H](O)[C@@H](O[C@H]3[C@H](O)[C@@H](O)C(O)O[C@@H]3CO)O[C@@H]2CO)[C@H](O)[C@@H](O)[C@@H]1N[C@H]1C=C(CO)[C@@H](O)[C@H](O)[C@H]1O (some centres not stated) [ACARBOSE]
683	CCCCC1CC(=O)c2cc(OC)ccc2N1 (configuration not stated)
667	O=C1CC(C2CCCO2)Nc2ccccc21 (configuration not stated)
462	OCCN1C[C@H](O)[C@@H](O)[C@H](O)[C@H]1CO [MIGLITOL]
325	OCC(CO)N[C@H]1C[C@](O)(CO)[C@@H](O)[C@H](O)[C@H]1O [VOGLIBOSE]
211	O=C1CC(c2ccc(F)cc2F)Nc2ccccc21 (configuration not stated)
494	O=C1CC(C2CCCCC2)Nc2ccccc21 (configuration not stated)
272	CCC1CC(=O)c2ccccc2N1 (configuration not stated)
134	CCCCC1CC(=O)c2ccc(F)cc2N1 (configuration not stated)
867	O=C1CC(C2CCOC2)Nc2ccccc21 (configuration not stated)
190	CCCC1CC(=O)c2ccccc2N1 (configuration not stated)
284	O=C1CC(C2CC2)Nc2ccccc21 (configuration not stated)
